# Source: ChEMBL document CHEMBL1671627, “Increasing trends in antimicrobial resistance among clinically important anaerobes and Bacteroides fragilis isolates causing nosocomial infections: emerging resistance to carbapenems” (2008)
# Assays:
# Bacteroides fragilis [1] = experiment: Antibacterial activity against Bacteroides fragilis assessed as susceptible isolates by CLSI agar dilution method; assay type: functional
# Bacteroides fragilis [2] = experiment: Antibacterial activity against Bacteroides fragilis assessed as resistant isolates by CLSI agar dilution method; assay type: functional
# [3] = test system: Bacteroides thetaiotaomicron; experiment: Antibacterial activity against beta-lactamase producing Bacteroides thetaiotaomicron assessed as susceptible isolates by CLSI agar dilution method; assay type: functional
# Phocaeicola vulgatus [4] = experiment: Antibacterial activity against beta-lactamase producing Bacteroides vulgatus by CLSI agar dilution method; assay type: functional
# Phocaeicola vulgatus [5] = experiment: Antibacterial activity against beta-lactamase producing Bacteroides vulgatus assessed as susceptible isolates by CLSI agar dilution method; assay type: functional
# Phocaeicola vulgatus [6] = experiment: Antibacterial activity against beta-lactamase producing Bacteroides vulgatus assessed as resistant isolates by CLSI agar dilution method; assay type: functional
# Bacteroides uniformis [7] = experiment: Antibacterial activity against beta-lactamase producing Bacteroides uniformis by CLSI agar dilution method; assay type: functional
# Bacteroides uniformis [8] = experiment: Antibacterial activity against beta-lactamase producing Bacteroides uniformis assessed as susceptible isolates by CLSI agar dilution method; assay type: functional
# Bacteroides uniformis [9] = experiment: Antibacterial activity against beta-lactamase producing Bacteroides uniformis assessed as resistant isolates by CLSI agar dilution method; assay type: functional
# Bacteroides caccae [10] = experiment: Antibacterial activity against beta-lactamase producing Bacteroides caccae by CLSI agar dilution method; assay type: functional
# Bacteroides caccae [11] = experiment: Antibacterial activity against beta-lactamase producing Bacteroides caccae assessed as susceptible isolates by CLSI agar dilution method; assay type: functional
# Bacteroides caccae [12] = experiment: Antibacterial activity against beta-lactamase producing Bacteroides caccae assessed as resistant isolates by CLSI agar dilution method; assay type: functional
# Fusobacterium varium [13] = experiment: Antibacterial activity against Fusobacterium varium by CLSI agar dilution method; assay type: functional
# Fusobacterium nucleatum [14] = experiment: Antibacterial activity against Fusobacterium nucleatum by CLSI agar dilution method; assay type: functional
# Fusobacterium mortiferum [15] = experiment: Antibacterial activity against Fusobacterium mortiferum by CLSI agar dilution method; assay type: functional
# [16] = test system: Fusobacterium necrophorum; experiment: Antibacterial activity against Fusobacterium necrophorum by CLSI agar dilution method; assay type: functional
# Fusobacterium varium [17] = experiment: Antibacterial activity against Fusobacterium varium assessed as susceptible isolates by CLSI agar dilution method; assay type: functional
# Fusobacterium nucleatum [18] = experiment: Antibacterial activity against Fusobacterium nucleatum assessed as susceptible isolates by CLSI agar dilution method; assay type: functional
# Fusobacterium mortiferum [19] = experiment: Antibacterial activity against Fusobacterium mortiferum assessed as susceptible isolates by CLSI agar dilution method; assay type: functional
# [20] = test system: Fusobacterium necrophorum; experiment: Antibacterial activity against Fusobacterium necrophorum assessed as susceptible isolates by CLSI agar dilution method; assay type: functional
# Fusobacterium varium [21] = experiment: Antibacterial activity against Fusobacterium varium assessed as resistant isolates by CLSI agar dilution method; assay type: functional
# Fusobacterium nucleatum [22] = experiment: Antibacterial activity against Fusobacterium nucleatum assessed as resistant isolates by CLSI agar dilution method; assay type: functional
# Fusobacterium mortiferum [23] = experiment: Antibacterial activity against Fusobacterium mortiferum assessed as resistant isolates by CLSI agar dilution method; assay type: functional
# [24] = test system: Fusobacterium necrophorum; experiment: Antibacterial activity against Fusobacterium necrophorum assessed as resistant isolates by CLSI agar dilution method; assay type: functional
# Prevotella buccae [25] = experiment: Antibacterial activity against Prevotella buccae by CLSI agar dilution method; assay type: functional; settings: Segatella buccae
# Prevotella bivia [26] = experiment: Antibacterial activity against Prevotella bivia by CLSI agar dilution method; assay type: functional
# Prevotella intermedia [27] = experiment: Antibacterial activity against Prevotella intermedia by CLSI agar dilution method; assay type: functional
# [28] = test system: Prevotella melaninogenica; experiment: Antibacterial activity against Prevotella melaninogenica by CLSI agar dilution method; assay type: functional
# Prevotella buccae [29] = experiment: Antibacterial activity against Prevotella buccae assessed as susceptible isolates by CLSI agar dilution method; assay type: functional, Segatella buccae
# Prevotella bivia [30] = experiment: Antibacterial activity against Prevotella bivia assessed as susceptible isolates by CLSI agar dilution method; assay type: functional
# Prevotella intermedia [31] = experiment: Antibacterial activity against Prevotella intermedia assessed as susceptible isolates by CLSI agar dilution method; assay type: functional
# [32] = test system: Prevotella melaninogenica; experiment: Antibacterial activity against Prevotella melaninogenica assessed as susceptible isolates by CLSI agar dilution method; assay type: functional
# Prevotella buccae [33] = experiment: Antibacterial activity against Prevotella buccae assessed as resistant isolates by CLSI agar dilution method; assay type: functional, Segatella buccae
# Prevotella bivia [34] = experiment: Antibacterial activity against Prevotella bivia assessed as resistant isolates by CLSI agar dilution method; assay type: functional
# Prevotella intermedia [35] = experiment: Antibacterial activity against Prevotella intermedia assessed as resistant isolates by CLSI agar dilution method; assay type: functional
# [36] = test system: Prevotella melaninogenica; experiment: Antibacterial activity against Prevotella melaninogenica assessed as resistant isolates by CLSI agar dilution method; assay type: functional
# Veillonella parvula = experiment: Antibacterial activity against Veillonella parvula by CLSI agar dilution method; assay type: functional
# Clostridium perfringens = experiment: microbe, parasite or virus in culture; assay type: functional
# [37] = test system: Clostridium paraputrificum; experiment: Antibacterial activity against beta-lactamase producing Clostridium paraputrificum by CLSI agar dilution method; assay type: functional
# Clostridium septicum [38] = experiment: Antibacterial activity against beta-lactamase producing Clostridium septicum by CLSI agar dilution method; assay type: functional
# Clostridium tertium [39] = experiment: Antibacterial activity against beta-lactamase producing Clostridium tertium by CLSI agar dilution method; assay type: functional
# [40] = test system: Clostridium paraputrificum; experiment: Antibacterial activity against beta-lactamase producing Clostridium paraputrificum assessed as susceptible isolates by CLSI agar dilution method; assay type: functional
# Clostridium septicum [41] = experiment: Antibacterial activity against beta-lactamase producing Clostridium septicum assessed as susceptible isolates by CLSI agar dilution method; assay type: functional
# Clostridium tertium [42] = experiment: Antibacterial activity against beta-lactamase producing Clostridium tertium assessed as susceptible isolates by CLSI agar dilution method; assay type: functional
# Bacteroides fragilis [43] = experiment: Antibacterial activity against Bacteroides fragilis by CLSI agar dilution method; assay type: functional
# [44] = test system: Bacteroides thetaiotaomicron; experiment: Antibacterial activity against beta-lactamase producing Bacteroides thetaiotaomicron by CLSI agar dilution method; assay type: functional
# [45] = test system: Clostridium paraputrificum; experiment: Antibacterial activity against beta-lactamase producing Clostridium paraputrificum assessed as resistant isolates by CLSI agar dilution method; assay type: functional
# Clostridium septicum [46] = experiment: Antibacterial activity against beta-lactamase producing Clostridium septicum assessed as resistant isolates by CLSI agar dilution method; assay type: functional
# Clostridium tertium [47] = experiment: Antibacterial activity against beta-lactamase producing Clostridium tertium assessed as resistant isolates by CLSI agar dilution method; assay type: functional
# [48] = test system: Peptostreptococcus anaerobius; experiment: Antibacterial activity against beta-lactamase producing Peptostreptococcus anaerobius by CLSI agar dilution method; assay type: functional
# [49] = test system: Peptostreptococcus anaerobius; experiment: Antibacterial activity against beta-lactamase producing Peptostreptococcus anaerobius assessed as susceptible isolates by CLSI agar dilution method; assay type: functional
# [50] = test system: Peptostreptococcus anaerobius; experiment: Antibacterial activity against beta-lactamase producing Peptostreptococcus anaerobius assessed as resistant isolates by CLSI agar dilution method; assay type: functional
# Parvimonas micra [51] = experiment: Antibacterial activity against beta-lactamase producing Micromonas micros by CLSI agar dilution method; assay type: functional
# Parvimonas micra [52] = experiment: Antibacterial activity against beta-lactamase producing Micromonas micros assessed as susceptible isolates by CLSI agar dilution method; assay type: functional
# Parvimonas micra [53] = experiment: Antibacterial activity against beta-lactamase producing Micromonas micros assessed as resistant isolates by CLSI agar dilution method; assay type: functional
# [54] = test system: Peptoniphilus asaccharolyticus; experiment: Antibacterial activity against beta-lactamase producing Peptoniphilus asaccharolyticus by CLSI agar dilution method; assay type: functional
# [55] = test system: Peptoniphilus asaccharolyticus; experiment: Antibacterial activity against beta-lactamase producing Peptoniphilus asaccharolyticus assessed as susceptible isolates by CLSI agar dilution method; assay type: functional
# [56] = test system: Peptoniphilus asaccharolyticus; experiment: Antibacterial activity against beta-lactamase producing Peptoniphilus asaccharolyticus assessed as resistant isolates by CLSI agar dilution method; assay type: functional
# Finegoldia magna [57] = experiment: Antibacterial activity against beta-lactamase producing Finegoldia magna by CLSI agar dilution method; assay type: functional
# Finegoldia magna [58] = experiment: Antibacterial activity against beta-lactamase producing Finegoldia magna assessed as susceptible isolates by CLSI agar dilution method; assay type: functional
# Finegoldia magna [59] = experiment: Antibacterial activity against beta-lactamase producing Finegoldia magna assessed as resistant isolates by CLSI agar dilution method; assay type: functional
compound,measurement,setting,value
CCC[C@@H]1C[C@@H](C(=O)N[C@@H]([C@H]2O[C@H](SC)[C@H](O)[C@@H](O)[C@H]2O)[C@H](C)Cl)N(C)C1 [CLINDAMYCIN],Activity,Bacteroides fragilis [1],63%
same,Activity,Bacteroides fragilis [2],37%
same,Activity,[3],43%
same,MIC50,Phocaeicola vulgatus [4],2 µg/mL
same,MIC90,Phocaeicola vulgatus [4],> 128 µg/mL
same,Activity,Phocaeicola vulgatus [5],57%
same,Activity,Phocaeicola vulgatus [6],39%
same,MIC50,Bacteroides uniformis [7],2 µg/mL
same,MIC90,Bacteroides uniformis [7],> 128 µg/mL
same,Activity,Bacteroides uniformis [8],57%
same,Activity,Bacteroides uniformis [9],39%
same,MIC50,Bacteroides caccae [10],2 µg/mL
same,MIC90,Bacteroides caccae [10],> 128 µg/mL
same,Activity,Bacteroides caccae [11],57%
same,Activity,Bacteroides caccae [12],39%
same,MIC50,Fusobacterium varium [13],0.25 µg/mL
same,MIC90,Fusobacterium varium [13],4 µg/mL
same,MIC50,Fusobacterium nucleatum [14],0.25 µg/mL
same,MIC90,Fusobacterium nucleatum [14],4 µg/mL
same,MIC50,Fusobacterium mortiferum [15],0.25 µg/mL
same,MIC90,Fusobacterium mortiferum [15],4 µg/mL
same,MIC50,[16],0.25 µg/mL
same,MIC90,[16],4 µg/mL
same,Activity,Fusobacterium varium [17],85%
same,Activity,Fusobacterium nucleatum [18],85%
same,Activity,Fusobacterium mortiferum [19],85%
same,Activity,[20],85%
same,Activity,Fusobacterium varium [21],7%
same,Activity,Fusobacterium nucleatum [22],7%
same,Activity,Fusobacterium mortiferum [23],7%
same,Activity,[24],7%
same,MIC50,Prevotella buccae [25],0.12 µg/mL
same,MIC90,Prevotella buccae [25],> 128 µg/mL
same,MIC50,Prevotella bivia [26],0.12 µg/mL
same,MIC90,Prevotella bivia [26],> 128 µg/mL
same,MIC50,Prevotella intermedia [27],0.12 µg/mL
same,MIC90,Prevotella intermedia [27],> 128 µg/mL
same,MIC50,[28],0.12 µg/mL
same,MIC90,[28],> 128 µg/mL
same,Activity,Prevotella buccae [29],69%
same,Activity,Prevotella bivia [30],69%
same,Activity,Prevotella intermedia [31],69%
same,Activity,[32],69%
same,Activity,Prevotella buccae [33],31%
same,Activity,Prevotella bivia [34],31%
same,Activity,Prevotella intermedia [35],31%
same,Activity,[36],31%
same,MIC,Veillonella parvula,0.06 µg/mL
same,MIC50,Clostridium perfringens,1 µg/mL
same,MIC90,Clostridium perfringens,8 µg/mL
same,MIC50,[37],1 µg/mL
same,MIC90,[37],8 µg/mL
same,MIC50,Clostridium septicum [38],1 µg/mL
same,MIC90,Clostridium septicum [38],8 µg/mL
same,MIC50,Clostridium tertium [39],1 µg/mL
same,MIC90,Clostridium tertium [39],8 µg/mL
same,Activity,[40],75%
same,Activity,Clostridium septicum [41],75%
same,Activity,Clostridium tertium [42],75%
same,MIC50,Bacteroides fragilis [43],1 µg/mL
same,MIC90,Bacteroides fragilis [43],> 128 µg/mL
same,MIC50,[44],4 µg/mL
same,MIC90,[44],> 128 µg/mL
same,Activity,[45],14%
same,Activity,Clostridium septicum [46],14%
same,Activity,Clostridium tertium [47],14%
same,MIC50,[48],0.12 µg/mL
same,MIC90,[48],4 µg/mL
same,Activity,[49],88%
same,Activity,[50],9%
same,MIC50,Parvimonas micra [51],0.12 µg/mL
same,MIC90,Parvimonas micra [51],4 µg/mL
same,Activity,Parvimonas micra [52],88%
same,Activity,Parvimonas micra [53],9%
same,MIC50,[54],0.12 µg/mL
same,MIC90,[54],4 µg/mL
same,Activity,[55],88%
same,Activity,[56],9%
same,MIC50,Finegoldia magna [57],0.12 µg/mL
same,MIC90,Finegoldia magna [57],4 µg/mL
same,Activity,Finegoldia magna [58],88%
same,Activity,Finegoldia magna [59],9%
